{"source": "patent US20130116231A1", "about": "“TYROSINE KINASE INHIBITORS” (Merck Sharp & Dohme Corp., priority 2010, published 2013)", "data": [{"biological_target": "T1, human c-Met (Homo sapiens, UniProt P08581)", "T1 construct": "Recombinant GST-tagged cytosolic domains of human c-Met; 6xHis; made in house; host or cells: Sf9 or Sf21 insect cells (baculovirus)", "T1 sequence (P08581 956-1390 limits assumed)": "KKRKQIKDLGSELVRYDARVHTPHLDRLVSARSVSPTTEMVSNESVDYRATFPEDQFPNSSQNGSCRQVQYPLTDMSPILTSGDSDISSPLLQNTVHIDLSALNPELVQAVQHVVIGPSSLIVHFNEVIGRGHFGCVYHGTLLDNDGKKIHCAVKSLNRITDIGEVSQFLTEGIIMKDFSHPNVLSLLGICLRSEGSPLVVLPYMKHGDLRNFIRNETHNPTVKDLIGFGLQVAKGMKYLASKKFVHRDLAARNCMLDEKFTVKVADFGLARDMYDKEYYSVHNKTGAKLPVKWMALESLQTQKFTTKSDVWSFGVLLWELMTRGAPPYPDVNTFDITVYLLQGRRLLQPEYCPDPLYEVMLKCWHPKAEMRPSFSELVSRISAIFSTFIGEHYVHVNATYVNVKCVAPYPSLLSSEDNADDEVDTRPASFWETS", "assay": "in vitro kinase assay (homogeneous time-resolved tyrosine kinase assay, METKA)", "assay_type": "biochemical", "settings": "recombinant GST-tagged c-Met cytosolic domain, HTRF, 50 μM MgATP; read-out: Biological Activity (METKA IC50) Activity Code", "summary_of_the_method": "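HTRF assay with GST-tagged cytosolic c-Met domain (0.2 nM), 0.5 μM biotinylated peptide, 50 μM MgATP, pH 7.4, 5% DMSO, 80 min at room temperature; Eu-anti-pTyr/SA-APC detection, IC50 by 4-parameter fit. Other kinases identical except enzyme level: mouse c-Met 0.2, Ron 2.5, KDR 8, IGFR 0.24, EGFR 0.24, FGFR 0.14, Mer 16, TrkA 8, Tie2 8 nM.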", "units": {"IC50": "nM"}, "values": [{"smiles": "CCn1cc(-n2ccc(=O)c(COc3ccc4ncc(-c5ccc(OC)cc5)cc4c3)n2)cn1", "note": "[Example 79, 1-(1-ethyl-1H-pyrazol-4-yl)-3-({[3-(4-methoxyphenyl)quinolin-6-yl]oxy}methyl)pyridazin-4(1H)-one]", "IC50": "< 100"}, {"smiles": "CCn1cc(-n2ccc(=O)c(COc3ccc4ncc(-c5ccncc5)cc4c3)n2)cn1", "note": "[Example 80, 1-(1-ethyl-1H-pyrazol-4-yl)-3-{[(3-pyridin-4-ylquinolin-6-yl)oxy]methyl}pyridazin-4(1H)-one]", "IC50": "< 100"}, {"smiles": "CCn1cc(-n2ccc(=O)c(COc3ccc4ncc(-c5ccc(C#N)nc5)cc4c3)n2)cn1", "note": "[Example 81, 5-(6-{[1-(1-ethyl-1H-pyrazol-4-yl)-4-oxo-1,4-dihydropyridazin-3-yl]methoxy}quinolin-3-yl)pyridine-2-carbonitrile]", "IC50": "< 100"}, {"smiles": "CCn1cc(-n2ccc(=O)c(COc3ccc4ncc(-c5ccc(OC)nc5)cc4c3)n2)cn1", "note": "[Example 82, 1-(1-ethyl-1H-pyrazol-4-yl)-3-({[3-(6-methoxypyridin-3-yl)quinolin-6-yl]oxy}methyl)pyridazin-4(1H)-one]", "IC50": "< 100"}, {"smiles": "CCn1cc(-n2ccc(=O)c(COc3ccc4ncc(-c5ccccc5F)cc4c3)n2)cn1", "note": "[Example 83, 1-(1-ethyl-1H-pyrazol-4-yl)-3-({[3-(2-fluorophenyl)quinolin-6-yl]oxy}methyl)pyridazin-4(1H)-one]", "IC50": "< 100"}, {"smiles": "CCn1cc(-n2ccc(=O)c(COc3ccc4ncc(-c5ccccc5C)cc4c3)n2)cn1", "note": "[Example 84, 1-(1-ethyl-1H-pyrazol-4-yl)-3-({[3-(2-methylphenyl)quinolin-6-yl]oxy}methyl)pyridazin-4(1H)-one]", "IC50": "< 100"}, {"smiles": "CCn1cc(-n2ccc(=O)c(COc3ccc4ncc(-c5cncnc5)cc4c3)n2)cn1", "note": "[Example 85, 1-(1-ethyl-1H-pyrazol-4-yl)-3-{[(3-pyrimidin-5-ylquinolin-6-yl)oxy]methyl}pyridazin-4(1H)-one]", "IC50": "< 100"}, {"smiles": "CCn1cc(-n2ccc(=O)c(COc3ccc4ncc(-c5cscn5)cc4c3)n2)cn1", "note": "[Example 86, 1-(1-ethyl-1H-pyrazol-4-yl)-3-({[3-(1,3-thiazol-4-yl)quinolin-6-yl]oxy}methyl)pyridazin-4(1H)-one]", "IC50": "< 100"}, {"smiles": "CCn1cc(-n2ccc(=O)c(COc3ccc4ncc(-c5ccc(N6CCOCC6)nc5)cc4c3)n2)cn1", "note": "[Example 87, 1-(1-ethyl-1H-pyrazol-4-yl)-3-({[3-(6-morpholin-4-ylpyridin-3-yl)quinolin-6-yl]oxy}methyl)pyridazin-4(1H)-one]", "IC50": "< 100"}, {"smiles": "CCn1cc(-n2ccc(=O)c(COc3ccc4ncc(-c5ccc(Cl)nc5)cc4c3)n2)cn1", "note": "[Example 88, 3-({[3-(6-chloropyridin-3-yl)quinolin-6-yl]oxy}methyl)-1-(1-ethyl-1H-pyrazol-4-yl)pyridazin-4(1H)-one]", "IC50": "< 100"}, {"smiles": "CCn1cc(-n2ccc(=O)c(COc3ccc4ncc(-c5ccc(C(F)(F)F)cc5)cc4c3)n2)cn1", "note": "[Example 89, 1-(1-ethyl-1H-pyrazol-4-yl)-3-[({3-[4-(trifluoromethyl)phenyl]quinolin-6-yl}oxy)methyl]pyridazin-4(1H)-one]", "IC50": "< 100"}, {"smiles": "CCn1cc(-n2ccc(=O)c(COc3ccc4ncc(-c5cccc(F)c5)cc4c3)n2)cn1", "note": "[Example 90, 1-(1-ethyl-1H-pyrazol-4-yl)-3-({[3-(3-fluorophenyl)quinolin-6-yl]oxy}methyl)pyridazin-4(1H)-one]", "IC50": "< 100"}, {"smiles": "CCn1cc(-n2ccc(=O)c(COc3ccc4ncc(-c5ccccc5)cc4c3)n2)cn1", "note": "[Example 91, 1-(1-ethyl-1H-pyrazol-4-yl)-3-{[(3-phenylquinolin-6-yl)oxy]methyl}pyridazin-4(1H)-one]", "IC50": "< 100"}, {"smiles": "Cn1cc(-n2ccc(=O)c(COc3ccc4ncc(-c5cnn(C6CN(C(=O)OC(C)(C)C)C6)c5)cc4c3)n2)cn1", "note": "[Example 92, tert-Butyl 3-[4-(6-{[1-(1-methyl-1H-pyrazol-4-yl)-4-oxo-1,4-dihydropyridazin-3-yl]methoxy}quinolin-3-yl)-1H-pyrazol-1-yl]azetidine-1-carboxylate]", "IC50": "< 100"}, {"smiles": "Cn1cc(-n2ccc(=O)c(COc3ccc4ncc(-c5cnn(C6CNC6)c5)cc4c3)n2)cn1", "note": "[Example 93, 3-[({3-[1-(Azetidin-3-yl)-1H-pyrazol-4-yl]quinolin-6-yl}oxy)methyl]-1-(1-methyl-1H-pyrazol-4-yl)pyridazin-4(1H)-one]", "IC50": "< 100"}, {"smiles": "Cn1cc(-n2ccc(=O)c(COc3ccc4ncc(-c5cnn(C6CCNCC6)c5)cc4c3)n2)cn1", "note": "[Example 94, 1-(1-methyl-1H-pyrazol-4-yl)-3-[({3-[1-(piperidin-4-yl)-1H-pyrazol-4-yl]quinolin-6-yl}oxy)methyl]pyridazin-4(1H)-one]", "IC50": "< 100"}, {"smiles": "COC(=O)c1cnc2ccc(OCc3nn(-c4cnn(C)c4)ccc3=O)cc2c1", "note": "[Example 95, Methyl 6-{[1-(1-methyl-1H-pyrazol-4-yl)-4-oxo-1,4-dihydropyridazin-3-yl]methoxy}quinoline-3-carboxylate]", "IC50": "100 to 1000"}, {"smiles": "Cn1cc(-n2ccc(=O)c(COc3ccc4ncc(-c5cnn(C6COC6)c5)cc4c3)n2)cn1", "note": "[Example 96, 1-(1-Methyl-1H-pyrazol-4-yl)-3-[({3-[1-(oxetan-3-yl)-1H-pyrazol-4-yl]quinolin-6-yl}oxy)methyl]pyridazin-4(1H)-one]", "IC50": "< 100"}, {"smiles": "Cn1cc(-n2ccc(=O)c(COc3ccc4nccc(Cl)c4c3)n2)cn1", "note": "[Example 97, 3-{[(4-Chloroquinolin-6-yl)oxy]methyl}-1-(1-methyl-1H-pyrazol-4-yl)pyridazin-4(1H)-one]", "IC50": "< 100"}, {"smiles": "CCc1ccnc2ccc(OCc3nn(-c4cnn(C)c4)ccc3=O)cc12", "note": "[Example 98, 3-{[(4-Ethylquinolin-6-yl)oxy]methyl}-1-(1-methyl-1H-pyrazol-4-yl)pyridazin-4(1H)-one]", "IC50": "< 100"}, {"smiles": "COCCOc1cnc2ccc(SCc3nn(-c4cnn(C)c4)ccc3=O)cc2c1", "note": "[Example 99, 3-({[3-(2-Methoxyethoxy)quinolin-6-yl]sulfanyl}methyl)-1-(1-methyl-1H-pyrazol-4-yl)pyridazin-4(1H)-one]", "IC50": "< 100"}, {"smiles": "CCOc1cnc2ccc(SCc3nn(-c4cnn(C)c4)ccc3=O)cc2c1", "note": "[Example 100, 3-{[(3-ethoxyquinolin-6-yl)sulfanyl]methyl}-1-(1-methyl-1H-pyrazol-4-yl)pyridazin-4(1H)-one]", "IC50": "< 100"}, {"smiles": "Cn1cc(-n2ccc(=O)c(CSc3ccc4ncccc4c3)n2)cn1", "note": "[Example 101, 1-(1-Methyl-1H-pyrazol-4-yl)-3-[(quinolin-6-ylsulfanyl)methyl]pyridazin-4(1H)-one]", "IC50": "< 100"}, {"smiles": "COCCOc1cnc2ccc(NCc3nn(-c4cnn(C)c4)ccc3=O)cc2c1", "note": "[Example 102, 3-({[3-(2-Methoxyethoxy)quinolin-6-yl]amino}methyl)-1-(1-methyl-1H-pyrazol-4-yl)pyridazin-4(1H)-one]", "IC50": "< 100"}, {"smiles": "CCOc1cnc2ccc(NCc3nn(-c4cnn(C)c4)ccc3=O)cc2c1", "note": "[Example 103, 3-{[(3-ethoxyquinolin-6-yl)amino]methyl}-1-(1-methyl-1H-pyrazol-4-yl)pyridazin-4(1H)-one]", "IC50": "100 to 1000"}, {"smiles": "Cn1cc(-n2ccc(=O)c(CNc3ccc4ncccc4c3)n2)cn1", "note": "[Example 104, 1-(1-Methyl-1H-pyrazol-4-yl)-3-[(quinolin-6-ylamino)methyl]pyridazin-4(1H)-one]", "IC50": "< 100"}, {"smiles": "Cn1cc(-n2ccc(=O)c(COc3ccc4ncsc4c3)n2)cn1", "note": "[Example 105, 3-[(1,3-Benzothiazol-6-yloxy)methyl]-1-(1-methyl-1H-pyrazol-4-yl)pyridazin-4(1H)-one]", "IC50": "< 100"}]}]}
